{"source": "patent US10821079B2", "about": "“PKC activators and combinations thereof” (Cognitive Research Enterprises, Inc., priority 2011, dated 2020)", "key": {"[1]": {"molecular_target": "T1, PKCα (Homo sapiens, UniProt P17252)", "assay": "Activation of purified PKC isozymes, radiometric: PKC-α", "type": "biochemical", "protocol": "(§1) To measure PKC activity, 10 μg of protein from either cytosol or membrane was incubated for 15 min at 37° C. in the presence of 10 μM histones, 4.89 mM CaCl2, 1.2 μg/μl phosphatidyl-L-serine, 0.18 μg/μl 1,2-dioctanoyl-sn-glycerol, 10 mM MgCl2, 20 mM HEPES (pH 7.4), 0.8 mM EDTA, 4 mM EGTA, 4% glycerol, 8 μg/ml aprotinin, 8 μg/ml leupeptin, 2 mM benzamidine, and 0.5 μCi of [γ-^32P]ATP. [^32P]Phosphoprotein formation was measured by adsorption onto phosphocellulose as described previously. See Nelson et al. (2009) J Biol Chem 284, 34514-34521. For measurements of activation by RA, PKC activity was measured in the absence of diacylglycerol (DAG) and phosphatidylserine, as described by Nelson et al. (2009) J Biol Chem 284, 34514-34521. PKC-δ and PKC-ε were measured in the absence of added EGTA and CaCl^2, as described by Kanno et al. (2006) J Lipid Res 47, 1146-1156. The enzyme was provided as a purified isozyme for in vitro experiments.\n(§2) To measure PKC, 10 μl of cell homogenate or purified PKC isoform was incubated for 15 min at 37° C. in the presence of 10 μM histones, 4.89 mM CaCl2, 1.2 μg/μl phosphatidyl-L-serine, 0.18 μg/μl 1,2-dioctanoyl-sn-glycerol, 10 mM MgCl2, 20 mM HEPES (pH 7.4), 0.8 mM EDTA, 4 mM EGTA, 4% glycerol, 8 μg/ml aprotinin, 8 μg/ml leupeptin, and 2 mM benzamidine. [γ32P]ATP (0.5 μCi) was added and 32P-phosphoprotein formation was measured by adsorption onto phosphocellulose as described previously. See Nelson et al., J. Neurochemistry, 1995, 65: 2350-2357.\n(§3) PKC activity of each compound was measured in the absence of diacylglycerol and phosphatidylserine and PKC-δ and PKC-ε were measured in the absence of added EGTA and CaCl2, as described by Kanno et al., J. Lipid Res., 2006, 47: 1146-1156. Low concentrations of Ca^2+ were needed because high Ca^2+ can interact with the PKC phosphatidylserine binding site and prevents activation. […] To determine their PKC isoform specificity, the compounds were pre-incubated with purified isoforms of PKC for five minutes and the PKC activity was measured radiometrically.\n(§4) The activation and PKC isozyme specificity of DCPLA-ethyl ester was measured following the procedures in Example 1(B) and (C), except that 9 ng of the purified isozyme was used and it was pre-incubated for 5 minutes at room temperature (FIG. 3). PKC-ε activation by DCPLA-tert-butyl ester and DCPLA-retinyl ester was measured in the same manner as DCPLA-ethyl ester (FIG. 3)."}, "[2]": {"molecular_target": "T2, PKC-ε (Homo sapiens, UniProt Q02156)", "T2 sequence (Q02156 1-737)": "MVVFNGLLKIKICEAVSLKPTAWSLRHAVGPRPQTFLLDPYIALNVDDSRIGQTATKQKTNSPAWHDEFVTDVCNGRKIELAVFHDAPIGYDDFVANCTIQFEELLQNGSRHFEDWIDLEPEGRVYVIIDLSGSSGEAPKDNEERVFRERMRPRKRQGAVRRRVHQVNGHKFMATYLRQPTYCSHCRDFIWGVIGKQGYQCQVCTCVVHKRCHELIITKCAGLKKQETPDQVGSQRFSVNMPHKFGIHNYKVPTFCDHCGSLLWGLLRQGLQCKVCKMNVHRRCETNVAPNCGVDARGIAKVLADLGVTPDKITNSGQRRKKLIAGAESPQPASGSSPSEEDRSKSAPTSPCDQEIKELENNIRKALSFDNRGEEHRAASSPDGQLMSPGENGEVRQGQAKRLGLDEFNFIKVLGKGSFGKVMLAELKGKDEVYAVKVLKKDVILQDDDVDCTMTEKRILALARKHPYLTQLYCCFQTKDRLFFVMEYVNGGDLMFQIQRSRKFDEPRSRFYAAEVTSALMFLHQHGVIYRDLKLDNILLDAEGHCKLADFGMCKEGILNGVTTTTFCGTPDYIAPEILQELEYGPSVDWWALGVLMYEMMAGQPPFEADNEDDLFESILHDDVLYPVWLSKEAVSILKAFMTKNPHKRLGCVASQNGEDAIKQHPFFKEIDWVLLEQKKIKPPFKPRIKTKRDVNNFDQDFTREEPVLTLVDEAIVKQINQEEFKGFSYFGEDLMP", "assay": "Activation of purified PKC isozymes, radiometric: PKC-ε", "type": "biochemical", "details": "for Specificity ε/α: Activation of PKC-ε ÷ activation or inhibition of PKCα at 3 × EC50", "protocol": "as §2, §3, §4\nThe EC50 values, PKC specificity, and activation for a select number of DCPLA esters was determined (see Table 1). EC50 values were determined by measuring the lowest concentration that activates by 50% of maximum activation. […] The specificity and activation of PKC by the various esters of DCPLA were calculated from the measurements of activation of PKC isozymes."}, "[3]": {"molecular_target": "PKC-δ (Homo sapiens, UniProt Q05655)", "sequence (Q05655 whole entry)": "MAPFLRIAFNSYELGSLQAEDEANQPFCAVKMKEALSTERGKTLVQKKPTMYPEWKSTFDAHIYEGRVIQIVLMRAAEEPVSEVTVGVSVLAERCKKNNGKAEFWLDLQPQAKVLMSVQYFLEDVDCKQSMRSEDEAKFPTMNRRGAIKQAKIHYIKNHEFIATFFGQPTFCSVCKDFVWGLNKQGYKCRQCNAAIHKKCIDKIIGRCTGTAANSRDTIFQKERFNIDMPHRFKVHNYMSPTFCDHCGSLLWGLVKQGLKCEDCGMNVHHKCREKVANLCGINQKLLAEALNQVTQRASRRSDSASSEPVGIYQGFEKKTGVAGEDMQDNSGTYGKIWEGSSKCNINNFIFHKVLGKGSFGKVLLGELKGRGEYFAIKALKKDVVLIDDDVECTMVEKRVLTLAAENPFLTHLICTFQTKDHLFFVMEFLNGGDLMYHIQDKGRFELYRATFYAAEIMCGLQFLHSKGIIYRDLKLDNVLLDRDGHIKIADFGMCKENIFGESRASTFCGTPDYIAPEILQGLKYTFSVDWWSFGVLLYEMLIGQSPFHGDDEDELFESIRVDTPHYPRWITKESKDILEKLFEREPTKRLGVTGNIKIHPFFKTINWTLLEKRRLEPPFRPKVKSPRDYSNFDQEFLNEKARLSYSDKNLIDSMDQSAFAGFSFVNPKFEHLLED", "assay": "Activation of purified PKC isozymes, radiometric: PKC-δ", "type": "biochemical", "protocol": "as §1, §2, §3"}, "[4]": {"tested_on": "primary rat hippocampal neurons", "assay": "Neuroprotection against ASPD induced toxicity, MTT, primary neurons", "type": "cell-based", "details": "added with DCPLA-ME, 50 nM ASPD", "protocol": "Viability of cells was measured by MTT assay. MTT (3-(4,5-Dimethylthiazol-2-yl)-2,5-diphenyltetrazolium bromide) is a tetrazolium salt that is cleaved to formazan by the succinate dehydrogenase, which is only active in viable cells. After solubilization of the formazan, the amount of dye can be quantified with a microplate reader at 570 nm along with a reference of 630 nm. For MTT assay, 5×104 primary rat hippocampal neurons from 18-day-old embryonic Sprague-Dawley rat brains were plated on each well of 24-well plates coated with poly-D-lysine. After treatment, the cells were washed with 1×PBS and were incubated with 200 μl of 1 mg/ml MTT solution (Sigma, USA) at 37° C. for 2 hr. Then the MTT-solution was removed and the cells were lysed with 200 μl isopropanol containing 0.04 M HCl and 160 mM NaOH for 10 min. Finally, the reading was done at 570 nm and 630 nm. All the samples were done in triplicates and the data was represented as the percentage of control.\nAll studies used 50 nM ASPDs. The viability of the cells were measured by the MTT assay."}, "[5]": {"tested_on": "PKC-ε", "assay": "PKC-ε level in primary neurons (immunofluorescence, Western Blot)", "type": "cell-based, rat", "details": "5 μM inhibitor", "protocol": "Cells were harvested in homogenizing buffer containing 10 mM Tris-Cl (pH 7.4), 1 mM PMSF (phenylmethylsulfonyl fluoride), 1 mM EGTA, 1 mM EDTA, 50 mM NaF, and 20 μM leupeptin and were lysed by sonication. The homogenate was centrifuged at 100,000×g for 15 min at 4° C. to obtain the cytosolic fraction (supernatant) and membrane (pellet). The pellet was resuspended in the homogenizing buffer by sonication. Protein concentration was measured using the Coomassie Plus (Bradford) Protein Assay kit (Pierce, USA). Following quantification, 20 μg of protein from each sample was subjected to SDS-PAGE analysis in 4-20% gradient Tris-Glycine gel (Invitrogen, USA). The separated protein was then transferred to nitrocellulose membrane. The membrane was blocked with BSA at room temperature for 15 min and was incubated with primary antibody over night at 4° C. After the incubation, it was washed three times with TBS-T (Tris Buffered saline-Tween 20) and further incubated with alkaline phosphatase conjugated secondary antibody (Jackson Immunoresearch Laboratories, USA) at 1:10,000 dilution for 45 min. The membrane was finally washed three times with TBS-T and developed using the 1-step NBT-BCIP substrate (Pierce, USA). Western Blot was imaged in the ImageQuant RT-ECL (GE Life Sciences, Piscataway, N.J.) and densitometric quantification was performed using the IMAL software (Blanchette Rockefeller Neurosciences Institute, Morgantown, W. Va.). For translocation assays, PKC activation was represented as the percentage of total protein in the membrane (membrane/cytosol+membrane).\nCells were grown in two chambered slides (Nunc, USA) at low density. For immunofluorescence staining, the cells were washed with PBS (pH 7.4) and fixed with 4% paraformaldehyde for 4 min. Following fixation, the cells were blocked and permeabilized with 5% serum and 0.3% Triton X 100 in 1×PBS for 30 min. […] Six individual fields at 63× oil lens magnification were analyzed for the mean fluorescence intensity (MFI) in each channel. […]"}, "[6]": {"tested_on": "PKC", "details": "cited from earlier work"}, "[7]": {"molecular_target": "T1, PKCα", "details": "cited from earlier work"}, "[8]": {"tested_on": "NCI 60 cell line screen", "details": "cited from earlier work"}, "[9]": {"molecular_target": "protein kinase C", "details": "(−)-enantiomer; read-out: EC50 (potency); cited from earlier work"}, "[10]": {"molecular_target": "T3, PKC", "T3 construct": "Ki", "details": "cited from earlier work"}, "[11]": {"tested_on": "PKC", "details": "cited from earlier work", "remark": "listed apart in the source"}, "[12]": {"details": "cited from earlier work"}}, "note": "Where two headings read alike, the source gives them in different places."}
{"molecule": "CCCCCC1CC1CC1CC1CCCCCCCC(=O)OC(C)C", "note": "(stereo not drawn) [DCPLA-isopropyl ester]", "values": [{"measurement": "PKC-α activation", "setting": "[1]", "result": "up to 40 % of control"}, {"measurement": "PKC-ε activation at peak", "setting": "[2]", "result": "up to 40 % of control"}, {"measurement": "concentration of maximal activation", "setting": "[2]", "result": 10, "unit": "nM"}, {"measurement": "Specificity ε/α", "setting": "[2]", "result": 1.4}, {"measurement": "effect on PKC-δ (in words)", "setting": "[3]", "result": "only slightly activated"}]}
{"molecule": "EAVSLKPT", "values": [{"measurement": "effect of inhibitor peptide on neuroprotection by DCPLA-ME", "setting": "[4]", "result": "blocked DCPLA-ME's protective effect"}, {"measurement": "effect of inhibitor on PKC-ε protection by DCPLA-ME", "setting": "[5]", "result": "completely blocked"}]}
{"molecule": "CCCCCCCC(=O)O[C@H]1/C(=C/C(=O)OC)C[C@H]2C[C@H](CO)OC(=O)C[C@H](O)C[C@@H]3CCC[C@H](C[C@@H]4CCO[C@H](/C=C/C(C)(C)[C@]1(O)O2)O4)O3", "note": "[Analog 1]", "values": [{"measurement": "affinity for PKC (in words)", "setting": "[6]", "result": "highest affinity for PKC"}, {"measurement": "Ki", "setting": "[6]; read-out: PKC Affin", "result": 0.25, "unit": "nM"}]}
{"molecule": "CC1=CC[C@H](C)C(C)(C)[C@@H]1/C=C/C(C)=C/CC[C@@]1(CO)[C@H](CCCO)/C(=C(/C)C=O)CC[C@]1(C)O", "note": "[Iripallidal]", "values": [{"measurement": "Ki", "setting": "[7]", "result": 75.6, "unit": "nM"}, {"measurement": "GI50 (concentration required to inhibit growth by 50%)", "setting": "[8]", "result": "micromolar to nanomolar range"}]}
{"molecule": "CCCCCCCCc1ccc2c3c(c[nH]c13)C[C@@H](CO)NC(=O)[C@H](C(C)C)N2C", "note": "[octylindolactam V, Octylindolactam V]", "values": [{"measurement": "EC50", "setting": "[9]", "result": 29, "unit": "nM"}]}
{"molecule": "CC1=C[C@]23C(=O)[C@@H](C=C(COC(=O)c4ccccc4)[C@@H](O)[C@]2(O)[C@H]1OC(=O)c1ccccc1)[C@H]1[C@@H](C[C@H]3C)C1(C)C", "note": "[Ingenol 3,20-dibenzoate]", "values": [{"measurement": "Ki", "setting": "[10]", "result": 240, "unit": "nM"}]}
{"molecule": "CCCCCC1CC1CC1CC1CCCCCCCC(=O)OC1CC[C@@]2(C)C(=CC[C@H]3[C@H]4CC[C@H]([C@H](C)CCCC(C)C)[C@@]4(C)CC[C@H]32)C1", "note": "(stereo partly drawn) [DCPLA-cholesteryl ester]", "values": [{"measurement": "effect on PKC-α (in words)", "setting": "[1]", "result": "inhibited at all concentrations"}, {"measurement": "PKC-ε activation at peak", "setting": "[2]", "result": "up to 130 % of control"}, {"measurement": "concentration of maximal activation", "setting": "[2]", "result": 0.01, "unit": "nM"}, {"measurement": "Specificity ε/α", "setting": "[2]", "result": 0.94}, {"measurement": "potency relative to Bryostatin-1", "setting": "[2]; concentration of maximal activity", "result": 18, "unit": "×"}, {"measurement": "PKC-δ activation", "setting": "[3]", "result": "up to 130 % of control"}]}
{"molecule": "CCCCCCCC(=O)OC1C(=CC(=O)OC)CC2CC(CO)OC(=O)CC(O)CCOC(CCCc3ccc(Br)cc3)CC3CCOC(C=CC(C)(C)C1(O)O2)O3", "note": "(stereo not drawn) [bryolog 5]", "values": [{"measurement": "Ki", "setting": "[6]; A-ring bryologs, read-out: affinity for PKC", "result": 1.9, "unit": "nM"}]}
{"molecule": "CCC1CC1CC1CC1CC1CC1CC1CC1CC1CC1CC1CC1CCC(=O)O", "note": "(stereo not drawn) [DHA-CP6]", "values": [{"measurement": "effective concentration", "setting": "[11]", "result": 10, "unit": "nM"}]}
{"molecule": "CCC/C=C/C=C/C(=O)O[C@H]1/C(=C/C(=O)OC)C[C@H]2C[C@H]([C@@H](C)O)OC(=O)C[C@H](O)C[C@@H]3C[C@H](OC(C)=O)C(C)(C)[C@](O)(C[C@@H]4C/C(=C/C(=O)OC)C[C@H](/C=C/C(C)(C)[C@]1(O)O2)O4)O3", "note": "[Bryostatin-1]", "values": [{"measurement": "time detectable in the blood", "setting": "[12]; after a single injection", "result": 14, "unit": "days"}, {"measurement": "share of initial dose in the blood", "setting": "[12]; at 100 hrs, intravenous injection", "result": 1, "unit": "%"}, {"measurement": "t1/2 in the blood stream", "setting": "[12]; blood", "result": 1, "unit": "h"}]}
